Assays:
Type in all cases: cell-based
[1] = system: slash pine megagametophyte; assay: Initiation frequency of embryogenic cultures from slash pine megagametophytes; conditions: 1.0 ppm paclobutrazol in media #1369B (Media 1374); 8 weeks, dark; control 19.3
Description: A further representative example in conifer to show the effects of gibberellin inhibitors in a buffered media is slash pine. Three cone collections with embryos at stages 2-4 were chosen. Removed seeds were soaked in running water for […]. and then agitated in 10% liquinox containing 1.1 ml/l Tween 20 for an additional 10 min. Seeds were sterilized in a laminar flood by agitating in 20% H2O2 for 10 min. Seeds were rinsed in sterilized water for 5 cycles of 5 to 10 min. each. The sterile seeds were placed into a sterile petri dish and dissected. The dissection was performed by splitting the seed coat, removing the integuments and nucellus, and placing the megagametophyte on the test medium. Test media #1374 contains the components of media #1369B and 1.0 ppm paclobutrazol. 2 ml of the appropriate media was poured into multi-well plates sufficient for 10 replications for each genotype. The plates were then incubated in the dark for 8 weeks at 24-26° C.

[2] = system: Loblolly pine megagametophytes; assay: Initiation frequency of embryogenic cultures from Loblolly pine megagametophyte explants
Description: Explants were megagametophytes isolated from Loblolly pine summer cones when embryos were at approximately stage 2-4. Seeds were. collected from four individual trees of diverse genotypes. Extracted seeds were soaked in running water for 10 minutes, agitated in 10% liquinox supplemented with 1.1 ml/l of Tween 20 for 10 minutes, and rinsed with water for 30 minutes. Seeds were sterilized in a laminar flow hood by agitating in 20% hydrogen peroxide for 10 minutes and rinsing with sterile deionized water. The seed coat, integuments, and nucellus were removed to isolate the megagametophytes. Culturing was performed in 24-well multi-well culture plates with each well having an approximate volume of 3.0 ml. Two ml of media was poured into each well.
Each replication consisted of eight adjacent wells on a multi-well plate, with one megagametophyte per well, providing three replications per multi-well plate. Twelve replications (for a total of 96 explants) were performed per treatment for each cone collection. The well plates were wrapped in Parafilm®, elastic wrap to minimize evaporation and incubated at 22-24° C. under dark conditions for nine weeks. Initiation frequency was scored for each dish by counting the number of explants which had successfully initiated embryogenic cultures.
The media treatments consisted of: (1) a control media #1043 (see Table 21); (2) media #1218, comprising media #1043 supplemented with 250 mg/l MES buffer; (3) media #1043 supplemented with 0.5 ppm folic acid and 0.05 ppm biotin; and (4) media #1218 supplemented with 0.5 ppm folic acid and 0.05 ppm biotin.
A representative procedure is shown for Loblolly pine. Experimental procedure follow similarly for other conifer but differ slightly in the composition of media used. […] Here, however, each treatment-genotype test consisted of ten replications of ten explants.
The cultures were covered and incubated in the dark at 24-26° C. for nine weeks.
Explants from four Loblolly pine cone collections were prepared and cultured as described in Example 2. The media treatments consisted of control media, #1218, which is media #1043 supplemented. with 250 mg/l MES, and four treatment media, which consist of media #1218 supplemented with 0.33, 1.0, 2.0, and 3.0 ppm paclobutrazol, respectively.
Four cone collections with embryos at stages 2-4 were used. Eighty explants from each cone collection on each media were tested. Seeds were removed from cones and soaked in running water for 10 min. Seeds were then agitated in 10% liquinox containing 1.1 ml/l Tween 20 for 10 min., and then rinsed with running tap water for 30 min. After transferring to a sterile hood, seeds were agitated in 20% H2O2 for 10 min., rinsed with sterile nanopure® H2O five times for 5 to 10 min. intervals, and then placed into a sterile petri dish for dissection. Seeds were dissected by splitting the seed coat, removing the integuments and nucellus. The megagametophyte was placed onto the appropriate medium. Each multi-well test plate contained 2 ml of solid media. Plates were incubated in the dark for 8 weeks and then scored.
The control media, media #1253, is described in detail in Table 16. All test media, #1275, #1421, #1422, and #1423 were comprised of the control media with the addition of a gibberellin inhibitor.

[3] = system: Loblolly pine embryogenic cultures; assay: Growth of Loblolly pine embryogenic cultures from single somatic embryos (tissue diameter, area); conditions: for Diameter of tissue (mm) / Approximate tissue area (mm^2): four weeks; for Diameter of tissue (mm): control 4.01; for Approximate tissue area (mm^2): control 12.6
Description: Three previously initiated Loblolly pine embryogenic cultures, each representing a different genotype, were grown in liquid media #1133, used as starting material for embryogenic cultures on various treatment media. Using a dissecting scope, individual stage 2 somatic embryos were extracted and placed on treatment media in the center of individual wells on a well plate. Forty embryos were prepared per treatment media, per genotype. Well plates were wrapped in Parafilm® and cultured under standard conditions at room temperature in the dark for four weeks. Embryogenic cultures derived from the single isolated embryos proliferated and spread over the surface of the culture medium. Spreading cultures were roughly circular in shape, radiating from the central embryo. At the end of four weeks, the growth of each culture was measured by measuring colony diameter using a dissecting scope ocular micrometer. Five treatment media were compared to control media #1043 (Table 21). Three media consisted of #1043 supplemented with paclobutrazol at concentrations of 0.33, 1.0 and 3.0 ppm. A B-vitamin treatment contained biotin at 0.05 ppm and folic acid at 0.5 ppm. […] The pH of media containing four different concentrations of MES was compared to that of a non-buffered control media during eight weeks of embryogenic culture growth. Maintenance cultures were established on treatment media using single isolated somatic embryos. Maintenance cultures were prepared and cultured essentially as described in Example 5. The control media was #1043. (See Table 21). The treatment media consisted of #1043 supplemented with 250, 500, 1000 and 1500 mg/l MES. Media pH was adjusted to 5.7 within all treatments prior to autoclaving, pouring and solidification. Immediately after pouring the media, and thereafter at two week intervals, media pH was measured up to the eighth week of culture growth. At each sampling time, four cultures from each media-genotype treatment were destructively sampled to measure the pH of the media directly underlying the growing embryogenic tissue. This experiment measured the effects of ABA, vitamins, culturing in a closed container, and culturing at increased atmospheric pressure on the growth of embryogenic cultures. Maintenance cultures were prepared on well plates using single somatic embryos, essentially as described in Example 5.

Compound	Initiation Frequency (%) [1]	Initiation Frequency (%) ([2]; 0.33 ppm in buffered media #1218 (Media 1043 + 250 mg/l MES), control 40.5)	Initiation Frequency (%) ([2]; 0.33 ppm in media #1043, nine weeks, control 39.1)	Initiation Frequency (%) ([2]; 1.0 ppm in buffered media #1218 (Media 1043 + 250 mg/l MES), control 40.5)	Initiation Frequency (%) ([2]; 2.0 ppm in buffered media #1218 (Media 1043 + 250 mg/l MES), control 40.5)	Initiation Frequency (%) ([2]; 3.0 ppm in buffered media #1218 (Media 1043 + 250 mg/l MES), control 40.5)	Initiation Frequency (%) ([2]; base media #1253, 1.0 ppm paclobutrazol, 0.1062 ppm flurprimidol, 1.58 ppm chlormequat-Cl, 0.16 ppm succinic acid-dh, 8 weeks, dark, control 29.5)	Extrusion (%) ([2]; base media #1253, 1.0 ppm paclobutrazol, 0.1062 ppm flurprimidol, 1.58 ppm chlormequat-Cl, 0.16 ppm succinic acid-dh, 8 weeks, dark, control 58.6)	Diameter of tissue (mm) ([3]; 0.33 ppm in media #1043)	Approximate tissue area (mm^2) ([3]; 0.33 ppm in media #1043)	Diameter of tissue (mm) ([3]; 1.0 ppm in media #1043)	Approximate tissue area (mm^2) ([3]; 1.0 ppm in media #1043)	Diameter of tissue (mm) ([3]; 3.0 ppm in media #1043)	Approximate tissue area (mm^2) ([3]; 3.0 ppm in media #1043)	Initiation Frequency (%) ([2]; base media #1043, MES 250 mg/l, vitamins = 0.5 ppm folic acid + 0.05 ppm biotin, nine weeks, dark, control 42.9)	Growth of cultures, as measured by culture diameter, relative to the control ([3]; 250 mg/l MES in media #1043)	Growth of cultures, as measured by culture diameter, relative to the control ([3]; higher concentrations of MES (500, 1000, 1500 mg/l) in media #1043)
CC(C)(C)[C@@H](O)[C@@H](Cc1ccc(Cl)cc1)n1cncn1 (racemic) [paclobutrazol]	28.5%	46.8%	37.3%	46.0%	46.1%	44.7%	35.3%	58.1%	4.13 mm	13.4 mm^2	5.00 mm	19.6 mm^2	5.23 mm	21.5 mm^2			
O=S(=O)(O)CCN1CCOCC1 [MES, 2-(N-morpholino)-ethanesulfonic acid]															47.7%	increased	inhibited

Source: patent publication US20060051868A1, “Methods for increasing conifer somatic embryo initiation, capture, and multiplication” (priority 2001, published 2006)
